Entries after “also recorded” stand apart in the source; their conditions may differ.
Columns and labels:
hippocampal cultures [1] = details: returns to baseline level after 2 days (Slomowitz et al., 2015); cited from earlier work
hippocampal cultures [2] = experiment: firing rate homeostasis: baclofen perturbation in MEA cultures; format: cell-based
Description: The stable reduction in MFR induced by teriflunomide could have been the result of either impairment of homeostatic compensation mechanisms, or a change in a firing set-point value. A perturbation of firing rate in vivo results in re-normalization to its set-point level 2 days following perturbation through homeostatic mechanisms (Hengen et al., 2013). […] In order to determine the role DHODH inhibition in homeostatic process, we added 10 μM baclofen following 12 hr incubation with teriflunomide (FIG. 7).

AD mouse models = AD mouse models (Sanchez et al., 2012); cited from earlier work
hippocampus = details: low-dose, MCI patients (Bakker et al., 2012); cited from earlier work
hippocampal neurons [3] = experiment: intrinsic excitability: action potentials evoked by somatic current injections (F-I curves); format: cell-based; details: teriflunomide incubation
Description: Modulation of intrinsic excitability is an important facet of neuronal adaptation. In this experiment we elicited action potentials (APs) in response to increasing somatic current injections ranging from 0 to +500 pA (F-I curves) in the presence of postsynaptic receptor blockers (FIGS. 3A-3B). As found, teriflunomide induced a reduction in the maximal firing frequency from 31.4±2.29 Hz to 17.2±3.34 after 4 hr of incubation, and to 16.25±3.06 Hz after 2 days of incubation (FIGS. 3B-3C). Input resistance was not affected by teriflunomide application (FIGS. 3D-3E).

hippocampal neurons [4] = experiment: mEPSC recording (excitatory quantal events); format: cell-based
Description: In this experiment we tested whether DHODH inhibition affects excitatory quantal events, by recording mEPSCs from hippocampal neurons under control conditions and 2 days following teriflunomide application (FIG. 5). As found, chronic teriflunomide incubation triggered a significant decrease of ˜26% in mEPSC amplitude (FIGS. 5A-5B).

[5] = tested on: CA3-CA1 synaptic transmission; experiment: fEPSP recording in acute hippocampal slices
From the text: Having established an essential role of DHODH activity in regulating MFR and E/I balance in hippocampal cultures, we asked whether acute DHODH inhibition modulates basal synaptic transmission in a more intact preparation—acute hippocampal slices. We evoked electrical stimulation in CA3 axons, comprising the Schaffer Collateral (SC) pathway of the hippocampus, and recorded the extracellular field excitatory postsynaptic potentials (fEPSP) in the stratum radiatum. We estimated the effect of teriflunomide (50 μM) on basal CA3-CA1 synaptic transmission evoked by low frequency stimulation of 0.1 Hz.
Next, we examined how DHODH inhibition affects short-term synaptic plasticity evoked by high-frequency spike bursts. This type of plasticity plays an important role in working memory function.

hippocampal neurons [6] = experiment: inhibition-excitation (I/E) ratio from sEPSCs and sIPSCs (integrated conductances GE, GI); format: cell-based
From the text: The inhibition-excitation (I/E) ratio constitutes an important factor in firing rate homeostasis, and in pathology of epilepsy. To assess the effects of DHODH inhibition on the I/E ratio, the spontaneous excitatory and inhibitory postsynaptic currents (sEPSCs, sIPSCs, respectively) were isolated at the same cell based on the reversal potentials of α-amino-3-hydroxy-5-methyl-4-isoxazolepropionic acid receptor (AMPAR)-mediated excitatory and GABAAR-mediated inhibitory currents, and the integrated excitatory (FIG. 4A) and inhibitory conductance's (GE, GI, respectively) were calculated (FIGS. 4B-4D).

[7] = tested on: pilocarpine-induced seizures; experiment: pilocarpine model of TLE, behavioral seizure duration; format: in vivo; details: 15 mg/kg IP daily for 3 days, pilocarpine 330 mg/kg IP, C57 male mice, p=0.0157
From the text: In order to determine the potential therapeutic benefit of DHODH inhibition for epilepsy treatment, we used the pilocarpine model of TLE, which is one of the most common mouse models that recapitulates many aspects of the human pathology. The pilocarpine model of TLE appears to be highly isomorphic with the human disease including induction of acute status epilepticus, and latent period followed by the appearance of spontaneous recurrent seizures, as well as the occurrence of widespread lesions in the CNS (Curia et al., 2008). These features make it highly suitable for testing the efficacy of antiepileptic drugs (Leite et al., 2002). We performed intraperitoneal (IP) daily injections of teriflunomide (15 mg/kg) or vehicle for 3 days, in 6-week-old male mice of C57 background. On the third day, mice were injected subcutaneously (SC) with 2 mg/kg scopolamine to prevent peripheral effects, and 30 min later with 330 mg/kg pilocarpine IP. […] Because seizure duration correlates with hippocampal pathology in the pilocarpine model (Mazzuferi et al., 2012), these in vivo results emphasize the potential of DHODH inhibition as a therapeutic approach in the most common form of epilepsy.

[8] = tested on: cultured hippocampal neurons; experiment: multi-electrode array (MEA) recording of spiking activity / mean firing rate; format: cell-based; details: for effect of teriflunomide on MFR in DHODH knockdown cultures: 50 μM teriflunomide in shDHODH-infected cultures
From the text: In order to test how DHODH targeting affects neuronal activity, we examined the effect of the DHODH inhibitor teriflunomide on cultured hippocampal neurons grown on a multi-electrode chip (MEA) that allows a long-term monitoring of spiking activity from many neurons simultaneously (FIGS. 1A-1C).
In order to test the specificity of teriflunomide effect on firing rate, we used a lentiviral-based shRNA delivery system (shDHODH; TRCN0000294665, Sigma Aldrich) to knockdown DHODH expression in hippocampal cultures.
In order to test whether the change in MFR resulting from DHODH inhibition is induced by the reduction of available uridine (a precursor of pyrimidines) or results from a change in the mitochondrial function, we co-applied 100 μM uridine mono-phosphate with teriflunomide in MEA recordings.

[9] = tested on: CA3-CA1 hippocampal connections; experiment: in vivo fEPSP recording after ICV injection; details: ICV 100 mM/1 μl daily for 3 days, bursts of 3 stimuli at 50 Hz, anesthetized mice
Description: Finally, we used intracerebroventricular (ICV) injection of teriflunomide to test its effect on hippocampal synaptic plasticity in vivo. For this, we injected teriflunomide (100 mM/1 μl daily) for 3 consecutive days and then performed electrophysiological fEPSP recording in vivo in anesthetized (2% isoflurane) mice. The recording electrodes were placed in the CA1 stratum radiatum, while the stimulating electrode was paced at the Schaffer Collateral fibers. We examined how inhibition of DHODH in the brain affects short-term synaptic plasticity in the hippocampus evoked by high-frequency spike bursts.

NCC(CC(=O)O)c1ccc(Cl)cc1 (stereo not drawn) [baclofen]
firing rate after baclofen alone (hippocampal cultures [1]): profound inhibition
MFR acutely after baclofen (hippocampal cultures [2]; 10 μM baclofen added in the presence of teriflunomide): 0.3678±0.08 Hz
MFR stabilized over a 2-day period after baclofen (hippocampal cultures [2]; 10 μM baclofen in the presence of teriflunomide, 48 h): 2.00±0.35 Hz

CC[C@@H](C(N)=O)N1CCCC1=O [levetiracetam]
brain hyperactivity (AD mouse models): reduces
cognitive impairments (AD mouse models): improves
memory (hippocampus): improvement
metabolic hyperactivity in the hippocampus (hippocampus): reduces

C/C(O)=C(\C#N)C(=O)Nc1ccc(C(F)(F)F)cc1 [teriflunomide, (2Z)-2-cyano-3-hydroxy-N-[4-(trifluoromethyl)phenyl]but-2-enamide]
input resistance (Rin) (hippocampal neurons [3]): no change; also recorded: not affected
MFR, new lower baseline value (hippocampal cultures [2]; 12 hr (overnight) incubation with 50 μM teriflunomide, original baseline 4.30±0.0.44 Hz): 2.50±0.38 Hz
decrease in mEPSC amplitude (hippocampal neurons [4]; 2 days teriflunomide incubation vs control): 26%
mEPSC frequency (hippocampal neurons [4]; 2 days teriflunomide incubation, p=0.08): not significantly affected; also recorded: did not reach statistical significance
fEPSP amplitude (basal CA3-CA1 transmission) ([5]; 50 μM teriflunomide, 0.1 Hz stimulation): gradual reduction
short-term synaptic facilitation (relative fEPSP amplitude within the burst) ([5]; bursts of 5 stimuli at 50 Hz, 30 min after teriflunomide): profoundly increased
I/E ratio (GI/GE per neuron) (hippocampal neurons [6]; 4 hr to 2 days of teriflunomide incubation): elevated and remained high; also recorded: significant and stable increase
average integrated excitatory conductance (GE) (hippocampal neurons [6]; 2 days of teriflunomide incubation): remained lower for 2 days; also recorded: stable during 2 days of incubation
average integrated excitatory conductance (GE) (hippocampal neurons [6]; after 4 hr of teriflunomide incubation): dramatic decrease
integrated inhibitory conductance (GI) (hippocampal neurons [6]; after either 4 hr or 2 days of teriflunomide incubation): no significant change; also recorded: no significant reduction
behavioral seizure duration [7]: significantly reduces
effect of teriflunomide on MFR in DHODH knockdown cultures [8]: did not produce long-term changes in MFR
effect of teriflunomide on MFR in DHODH knockdown cultures ([8]; listed as Teriflunomide): did not have a significant effect
neuronal mean firing rate (MFR) ([8]; 50 μM teriflunomide, after 4 h of application, baseline 3.95±0.27 Hz): 1.58±0.17 Hz
stability of the lower MFR induced by teriflunomide ([8]; 50 μM teriflunomide, time following application): stable for 14 hr
reduction in MFR with co-applied uridine ([8]; 100 μM uridine mono-phosphate co-applied with 50 μM teriflunomide, timescale of 2 days): does not occlude the reduction in maximum firing rate (MFR); also recorded: did not occlude the effect of teriflunomide on MFR; also recorded: did not occlude the reduction in MFR
short-term synaptic facilitation in vivo [9]: increase

Source: US11033524B2, “Methods and compositions for treating disorders associated with cortico-hippocampal hyperactivity” (RAMOT AT TEL-AVIV UNIVERSITY LTD., priority 2016, dated 2021)
